{
  "source": "PubChem BioAssay (NCI)",
  "experiment_in_all_cases": "inhibition of tumour cell growth, NCI panel, 48 h",
  "key": {"786-0 renal": {"tested_on": "786-0 renal"}, "A498 renal": {"tested_on": "A498 renal"}, "A549 NSCLC": {"tested_on": "A549 NSCLC"}, "ACHN renal": {"tested_on": "ACHN renal"}, "BT-549 breast": {"tested_on": "BT-549 breast"}, "CAKI-1 renal": {"tested_on": "CAKI-1 renal"}, "CCRF-CEM leukemia": {"tested_on": "CCRF-CEM leukemia"}, "COLO 205 colon": {"tested_on": "COLO 205 colon"}, "DU-145 prostate": {"tested_on": "DU-145 prostate"}, "EKVX NSCLC": {"tested_on": "EKVX NSCLC"}, "HCC-2998 colon": {"tested_on": "HCC-2998 colon"}, "HCT-116 colon": {"tested_on": "HCT-116 colon"}, "HCT-15 colon": {"tested_on": "HCT-15 colon"}, "HL-60(TB) leukemia": {"tested_on": "HL-60(TB) leukemia"}, "HOP-62 NSCLC": {"tested_on": "HOP-62 NSCLC"}, "HOP-92 NSCLC": {"tested_on": "HOP-92 NSCLC"}, "HS 578T breast": {"tested_on": "HS 578T breast"}, "HT29 colon": {"tested_on": "HT29 colon"}, "IGROV1 ovarian": {"tested_on": "IGROV1 ovarian"}, "K-562 leukemia": {"tested_on": "K-562 leukemia"}, "KM12 colon": {"tested_on": "KM12 colon"}, "LOX IMVI melanoma": {"tested_on": "LOX IMVI melanoma"}, "M14 melanoma": {"tested_on": "M14 melanoma"}, "MALME-3M melanoma": {"tested_on": "MALME-3M melanoma"}, "MCF7 breast": {"tested_on": "MCF7 breast"}, "MDA-MB-231 breast": {"tested_on": "MDA-MB-231 breast"}, "MDA-MB-435": {"tested_on": "MDA-MB-435"}, "MDA-N": {"tested_on": "MDA-N"}, "MOLT-4 leukemia": {"tested_on": "MOLT-4 leukemia"}, "NCI-H226 lung": {"tested_on": "NCI-H226 lung"}, "NCI-H23 lung": {"tested_on": "NCI-H23 lung"}, "NCI-H460 lung": {"tested_on": "NCI-H460 lung"}, "NCI-H522 lung": {"tested_on": "NCI-H522 lung"}, "NCI/ADR-RES ovarian": {"tested_on": "NCI/ADR-RES ovarian"}, "OVCAR-3 ovarian": {"tested_on": "OVCAR-3 ovarian"}, "OVCAR-4 ovarian": {"tested_on": "OVCAR-4 ovarian"}, "OVCAR-5 ovarian": {"tested_on": "OVCAR-5 ovarian"}, "OVCAR-8 ovarian": {"tested_on": "OVCAR-8 ovarian"}, "PC-3 prostate": {"tested_on": "PC-3 prostate"}, "RPMI-8226 leukemia": {"tested_on": "RPMI-8226 leukemia"}, "RXF 393 renal": {"tested_on": "RXF 393 renal"}, "SF-268 CNS": {"tested_on": "SF-268 CNS"}, "SF-295 CNS": {"tested_on": "SF-295 CNS"}, "SF-539 CNS": {"tested_on": "SF-539 CNS"}, "SK-MEL-2 melanoma": {"tested_on": "SK-MEL-2 melanoma"}, "SK-MEL-28 melanoma": {"tested_on": "SK-MEL-28 melanoma"}, "SK-MEL-5 melanoma": {"tested_on": "SK-MEL-5 melanoma"}, "SN12C renal": {"tested_on": "SN12C renal"}, "SNB-19 CNS": {"tested_on": "SNB-19 CNS"}, "SNB-75 CNS": {"tested_on": "SNB-75 CNS"}, "SR leukemia": {"tested_on": "SR leukemia"}, "SW-620 colon": {"tested_on": "SW-620 colon"}, "T-47D breast": {"tested_on": "T-47D breast"}, "TK-10 renal": {"tested_on": "TK-10 renal"}, "U251 CNS": {"tested_on": "U251 CNS"}, "UACC-257 melanoma": {"tested_on": "UACC-257 melanoma"}, "UACC-62 melanoma": {"tested_on": "UACC-62 melanoma"}, "UO-31 renal": {"tested_on": "UO-31 renal"}},
  "note": "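Tested at 5 concentrations; 48 h exposure; 96-well plates; endpoints linearly interpolated, else capped at highest concentration. The concentration for full growth arrest is given as TGI.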",
  "data": [
    {"smiles": "CC(C)c1cc2c(c(O)c1O)[C@@]1(C)CCCC(C)(C)C1=C(O)C2", "values": [
      {"measurement": "TGI", "setting": "786-0 renal", "result": 11.8, "unit": "µM"},
      {"measurement": "TGI", "setting": "A498 renal", "result": 3.19, "unit": "µM"},
      {"measurement": "TGI", "setting": "A549 NSCLC", "result": 5.73, "unit": "µM"},
      {"measurement": "TGI", "setting": "ACHN renal", "result": 5.39, "unit": "µM"},
      {"measurement": "TGI", "setting": "BT-549 breast", "result": 4.22, "unit": "µM"},
      {"measurement": "TGI", "setting": "CAKI-1 renal", "result": 2.84, "unit": "µM"},
      {"measurement": "TGI", "setting": "CCRF-CEM leukemia", "result": 2.12, "unit": "µM"},
      {"measurement": "TGI", "setting": "COLO 205 colon", "result": 8.06, "unit": "µM"},
      {"measurement": "TGI", "setting": "DU-145 prostate", "result": "> 50", "unit": "µM"},
      {"measurement": "TGI", "setting": "EKVX NSCLC", "result": 3.56, "unit": "µM"},
      {"measurement": "TGI", "setting": "HCC-2998 colon", "result": 2.76, "unit": "µM"},
      {"measurement": "TGI", "setting": "HCT-116 colon", "result": "> 50", "unit": "µM"},
      {"measurement": "TGI", "setting": "HCT-15 colon", "result": 6.77, "unit": "µM"},
      {"measurement": "TGI", "setting": "HL-60(TB) leukemia", "result": 3.27, "unit": "µM"},
      {"measurement": "TGI", "setting": "HOP-62 NSCLC", "result": 13.4, "unit": "µM"},
      {"measurement": "TGI", "setting": "HOP-92 NSCLC", "result": 2.32, "unit": "µM"},
      {"measurement": "TGI", "setting": "HS 578T breast", "result": 13.4, "unit": "µM"},
      {"measurement": "TGI", "setting": "HT29 colon", "result": 16.1, "unit": "µM"},
      {"measurement": "TGI", "setting": "IGROV1 ovarian", "result": 2.79, "unit": "µM"},
      {"measurement": "TGI", "setting": "K-562 leukemia", "result": 4.13, "unit": "µM"},
      {"measurement": "TGI", "setting": "KM12 colon", "result": 5.78, "unit": "µM"},
      {"measurement": "TGI", "setting": "LOX IMVI melanoma", "result": 3.14, "unit": "µM"},
      {"measurement": "TGI", "setting": "M14 melanoma", "result": 13.4, "unit": "µM"},
      {"measurement": "TGI", "setting": "MALME-3M melanoma", "result": 3.36, "unit": "µM"},
      {"measurement": "TGI", "setting": "MCF7 breast", "result": 2.85, "unit": "µM"},
      {"measurement": "TGI", "setting": "MDA-MB-231 breast", "result": "> 50", "unit": "µM"},
      {"measurement": "TGI", "setting": "MDA-MB-435", "result": 2.77, "unit": "µM"},
      {"measurement": "TGI", "setting": "MDA-N", "result": 6.77, "unit": "µM"},
      {"measurement": "TGI", "setting": "MOLT-4 leukemia", "result": 2.99, "unit": "µM"},
      {"measurement": "TGI", "setting": "NCI-H226 lung", "result": "> 50", "unit": "µM"},
      {"measurement": "TGI", "setting": "NCI-H23 lung", "result": 6.8, "unit": "µM"},
      {"measurement": "TGI", "setting": "NCI-H460 lung", "result": 5.89, "unit": "µM"},
      {"measurement": "TGI", "setting": "NCI-H522 lung", "result": 3.06, "unit": "µM"},
      {"measurement": "TGI", "setting": "NCI/ADR-RES ovarian", "result": 2, "unit": "µM"},
      {"measurement": "TGI", "setting": "OVCAR-3 ovarian", "result": 5.26, "unit": "µM"},
      {"measurement": "TGI", "setting": "OVCAR-4 ovarian", "result": 4.55, "unit": "µM"},
      {"measurement": "TGI", "setting": "OVCAR-5 ovarian", "result": 9.03, "unit": "µM"},
      {"measurement": "TGI", "setting": "OVCAR-8 ovarian", "result": 6.99, "unit": "µM"},
      {"measurement": "TGI", "setting": "PC-3 prostate", "result": 3.51, "unit": "µM"},
      {"measurement": "TGI", "setting": "RPMI-8226 leukemia", "result": 2.15, "unit": "µM"},
      {"measurement": "TGI", "setting": "RXF 393 renal", "result": 2.96, "unit": "µM"},
      {"measurement": "TGI", "setting": "SF-268 CNS", "result": 5.84, "unit": "µM"},
      {"measurement": "TGI", "setting": "SF-295 CNS", "result": 4.38, "unit": "µM"},
      {"measurement": "TGI", "setting": "SF-539 CNS", "result": 1.89, "unit": "µM"},
      {"measurement": "TGI", "setting": "SK-MEL-2 melanoma", "result": 2.65, "unit": "µM"},
      {"measurement": "TGI", "setting": "SK-MEL-28 melanoma", "result": 8.69, "unit": "µM"},
      {"measurement": "TGI", "setting": "SK-MEL-5 melanoma", "result": 2.32, "unit": "µM"},
      {"measurement": "TGI", "setting": "SN12C renal", "result": "> 50", "unit": "µM"},
      {"measurement": "TGI", "setting": "SNB-19 CNS", "result": 9.32, "unit": "µM"},
      {"measurement": "TGI", "setting": "SNB-75 CNS", "result": 2.56, "unit": "µM"},
      {"measurement": "TGI", "setting": "SR leukemia", "result": 3.21, "unit": "µM"},
      {"measurement": "TGI", "setting": "SW-620 colon", "result": 5.4, "unit": "µM"},
      {"measurement": "TGI", "setting": "T-47D breast", "result": 20, "unit": "µM"},
      {"measurement": "TGI", "setting": "TK-10 renal", "result": 24.2, "unit": "µM"},
      {"measurement": "TGI", "setting": "U251 CNS", "result": 4.54, "unit": "µM"},
      {"measurement": "TGI", "setting": "UACC-257 melanoma", "result": 3.37, "unit": "µM"},
      {"measurement": "TGI", "setting": "UACC-62 melanoma", "result": "> 50", "unit": "µM"},
      {"measurement": "TGI", "setting": "UO-31 renal", "result": 3.95, "unit": "µM"}
    ]}
  ]
}
